The target in one data set is MDM2 (Homo sapiens, UniProt Q00987). Kind of data set: Plate-based E3 ligase assay, MDM2 autoubiquitination (MDM2-FLAG). It is filed as biochemical. The procedure:
E3 (His-APC11/APC2—“APC”) auto-ubiquitination was measured as described in U.S. patent application Ser. No. 09/826,312 (Publication No. US-2002-0042083-A1), which is incorporated herein in its entirety. Details of the protocol are described below. Activity in the presence of the compound was determined relative to a parallel control in which only DMSO was added. Values of the IC50 were typically determined using 6 or 8 different concentrations of the compound, although as few as 2 concentrations may be used to approximate the IC50 value.
Nickel-coated 96-well plates (Pierce 15242) were blocked for 1 hour with 100 μl of blocking buffer at room temperature. The plates were washed 4 times with 225 μl of 1×PBS and 80 μl of the reaction buffer were added that contained 100 ng/well of Flag-ubiquitin. To this, 10 μl of the test compound diluted in DMSO were added. After the test compound was added, 10 μl of E1 (human), E2 (Ubch5c), and APC in Protein Buffer was added to obtain a final concentration of 5 ng/well of E1, 20 ng/well: of E2 and 100 ng/well of APC. The plate were shaken for 10 minutes and incubated at room temperature for 1 hour. After incubation, the plates were washed 4 times with 225 μl of 1×PBS and 100 μl/well of Antibody Mix were added to each well. The plates were incubate at room temperature for another hour after which they were washed 4 times with 225 μl of 1×PBS and 100 μl/well of Lumino substrate were added to each well. The luminescence was measured by using a BMG luminescence microplate reader.
In similar manner, autoubiquitination of the E3 MDM2 was determined (MDM2-FLAG). Further instruction in such assays can be found in U.S. patent application Ser. No. 10/108,767 (Publication No. US-2003-0104474 A1), which is incorporated herein in its entirety.
hMDM2 Plate/Gel is Mouse double minute 2, human homolog. This protein belongs to the E3 RING finger ligase group.

Data set [1] relates to p53 reporter system in p53 wild-type U2OS cell line. Put plainly: p53-dependent transcription reporter assay, U20SRE. It is filed as cell-based. As to conditions: p53 +ve cell type; maximal fold induction over DMSO control. The text has this:
Stable lines of U2OS (osteosarcoma; Wild-type p53 positive), HCT116 (colorectal carcinoma; Wild-type p53 positive) and H1299 (lung non-small cell carcinoma; p53 null) carrying p53-dependent transcriptional regulatory element linked to a Luciferase reporter gene and H1299 carrying a 5′-regulatory region of GADD45 linked to Luciferase were used.
Day 1: Cells were re-plated into 96-well plates at suitable densities to make 50-60% confluence on Day 2. The plating densities are as follows: 7.5×10^3 cells/well (or 2.5×10^4 cells/cm^2) for U2OS; 1.5×10^4 cells/well (or 5.0×10^4 cells/cm^2) for HCT116; and 1.0×10^4 cells/well (or 3.3×10^4 cells/cm^2) for H1299.
Day 2: The compounds or control drugs were diluted in dimethyl sulfoxide (DMSO) and added to the wells to create 6-points/2-fold serial dilution (20, 10, 5, 2.5, 1.25, 0.625 and 0 μM) for each compound. The DMSO concentration was adjusted to 0.2% in all wells.
Day 3: Twenty to 24 hours after compound addition, cells were twice washed with PBS and lysed with Glo-lysis buffer (100 μl/well, Promega; Cat#E2661). Plates were subjected to gentle agitation on a table-top shaker for 5 minutes at room temperature. Fifty μl of lysate was transferred to an assay plate to test for luciferase activity and mixed with 2× assay buffer (Promega; Cat# E1483). The reaction mixture was left at room temperature for 2 minutes and then luminescence was measure by a luminometer (Victor™, 1420 Multilabel Counter, Wallac).
Data analysis was done on Excel software (Microsoft). Values in Table 4 represent maximal fold induction over negative control (DMSO only) and are the mean of at least duplicate experiments.
U20SRE is a p53 wild-type U2OS cell line containing p53 reporter system. If the compound acts against MDM2, p53 activity increases.
For orientation: In a reporter assay the amount or activity of a reporter protein is the signal.

A further data set concerns H1299 cells. Put plainly: PAD anti-proliferation assay, H1299. It is filed as cell-based. As to conditions: Homo sapiens, NCI-H1299, 48 hours. On the procedure: A549 (ATCC# CCL 185), HeLa (ATCC# CCL 2), HCT116 (ATCC# CCL-247), and H 1299 (ATCC# CRL-5803) cells were maintained in T175 flasks following the ATCC recommended media and handling procedures. Flasks reaching approximately 70% confluency were trypsinized and resuspended in RPMI media (Cell Gro catalog number 10 040 CM) modified to contain 5% FBS, 100 ug/mlPen/Strep (Cell Gro catalog number 30 002 CL), and 0.3 mg/ml L Glutamine (Cell Gro catalog number 25 003 CL). A 20,000 cells/ml solution was made for plating. Cells were plated in black Packard 96 well plates by placing 100 μl per well (2,000 cells per well).
Compounds and additional media were added 24′ hours after cell plating. A compound master plate was created with concentrations 500 times greater than the final concentration added to the cells. All compound testing was done in duplicate using 3 fold dilutions starting with 10 mM. All outside wells (and 4 internal wells) were DMSO controls. Taxol and at least one additional control were run on all plates. Three microliters of the compound master plate were added to deep well blocks containing 750 μl of RPMI media. One hundred microliters were transferred from the compound/media deep well blocks to the plated cells resulting in a 500 fold dilution of the compounds. Cells were grown at 37° C., 5% CO2 for 48 hours.
Cells to be analyzed by photography were fixed and stained. One hundred microliters of media were removed and 100 μl of 2% paraformaldehyde was added to each well. Plates were left on the benchtop for 45 minutes. A staining solution containing 1.55 μl of 1 mg/ml DAPI added to 18.75 ml PBS was warmed for 15 minutes at 37° C. The cells were aspirated prior to washing with 100 μl of PBS. Seventy microliters of PBS were aspirated and 170 μl of the DAPI solution were added to each well of fixed cells. Plates were left at room temperature for one hour then aspirated and washed twice with 100 μl of PBS. The stained cells were left at 4° C. for a minimum of 16 hours before photographic analysis with Array Scan II (Cellomics). Analysis of the photographic images to determine numbers of live cells (proliferation), apoptotic cells and dead cells, were according to the methods described in U.S. Provisional Patent Application Ser. No. 60/406,714, which incorporated herein in its entirety.

The mark [2] stands for this setting: Table 3, read-out: MDM2 Plate IC50.

Like-named read-outs stand apart in the source and are kept apart here.

We go through six compounds from US20060160869A1, “Ubiquitin ligase inhibitors” (Rigel Pharmaceuticals, Inc., priority 2005, published 2006).

Sequence of MDM2 (Q00987 whole entry): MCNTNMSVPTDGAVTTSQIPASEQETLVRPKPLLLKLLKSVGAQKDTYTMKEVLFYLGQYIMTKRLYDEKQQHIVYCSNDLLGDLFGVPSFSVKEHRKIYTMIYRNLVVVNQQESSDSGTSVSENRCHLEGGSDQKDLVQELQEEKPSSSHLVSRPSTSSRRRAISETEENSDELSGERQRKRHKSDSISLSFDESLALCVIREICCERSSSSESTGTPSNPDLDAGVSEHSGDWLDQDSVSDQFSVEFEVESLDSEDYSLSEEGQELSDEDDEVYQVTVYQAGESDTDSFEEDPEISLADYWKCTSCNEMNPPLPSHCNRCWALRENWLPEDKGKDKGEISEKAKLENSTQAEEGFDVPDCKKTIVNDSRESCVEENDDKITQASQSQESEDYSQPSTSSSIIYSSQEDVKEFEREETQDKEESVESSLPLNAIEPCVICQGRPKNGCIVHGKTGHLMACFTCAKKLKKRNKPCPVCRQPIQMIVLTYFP

Usually IC50 stands for the concentration at which inhibition is half-maximal. As to `COc1cccc(-c2csc(N(CCOc3ccccc3)Cc3ccc(C(=O)N4CCNCC4)cc3)n2)c1` [compound 352], the IC50 was in the range of 1000 to 20000 nM at MDM2 (Table 2, read-out: MDM2 IC50); 1000 to 20000 nM at MDM2 (setting [2]); 1000 to 20000 nM with H1299 cells. The “Fold Induction of p53 activity, U20SRE” value in data set [1] was “b (b means greater than 2)”.

As to `COc1cccc(-c2csc(N(Cc3ccc(C(=O)N4CCNCC4)cc3)Cc3cccc(OC(F)(F)F)c3)n2)c1` [compound 351], the IC50 on MDM2 (Table 2, read-out: MDM2 IC50) was 1000 to 20000 nM; at MDM2 (setting [2]) it was 1000 to 20000 nM; in the data set on H1299 cells, 1000 to 20000 nM. Also, the “Fold Induction of p53 activity, U20SRE” value in data set [1] was “b (b means greater than 2)”.

Consider `COc1cccc(CN(Cc2ccc(C(=O)N3CCNCC3)cc2)c2nc(-c3ccc(Br)cc3)cs2)c1OC` [compound 353], for which the IC50 was 1000 to 20000 nM on MDM2 (Table 2, read-out: MDM2 IC50); 1000 to 20000 nM on MDM2 (setting [2]); 1000 to 20000 nM with H1299 cells. In data set [1], the “Fold Induction of p53 activity, U20SRE” value is “a (a means 2 or less)”.

On to `O=C(c1ccc(CN(Cc2cccc(OC(F)(F)F)c2)c2nc(-c3ccc4ccccc4c3)cs2)cc1)N1CCNCC1` [compound 282, 4-(2-naphthyl)-N-[4-(piperazin-1-ylcarbonyl)benzyl]-N-[3-(trifluoromethoxy)benzyl]-1,3-thiazol-2-amine], for which the IC50 on MDM2 (Table 2, read-out: MDM2 IC50) lay in the range of 1000 to 20000 nM; on MDM2 (setting [2]), 1000 to 20000 nM; in the data set on H1299 cells, 1000 to 20000 nM. Besides, in data set [1], the “Fold Induction of p53 activity, U20SRE” value is listed as “b (b means greater than 2)”.

Take `O=C(c1ccc(CN(Cc2cccc(OC(F)(F)F)c2)c2nc(-c3ccccc3)cs2)cc1)N1CCNCC1` [compound 275]: the IC50 fell in the range of 1000 to 20000 nM on MDM2 (Table 2, read-out: MDM2 IC50); 1000 to 20000 nM at MDM2 (setting [2]); 1000 to 20000 nM in the data set with H1299 cells. In addition, in data set [1], the “Fold Induction of p53 activity, U20SRE” value is reported as “b (b means greater than 2)”.

`O=C(c1ccc(CN(CCOc2ccccc2)c2nc(-c3ccc(Cl)c(Cl)c3)cs2)cc1)N1CCNCC1` [compound 360]: the IC50 on MDM2 (Table 2, read-out: MDM2 IC50) was 1000 to 20000 nM; at MDM2 (setting [2]), less than 1000 nM; in the data set on H1299 cells, 1000 to 20000 nM. In addition, in data set [1], the “Fold Induction of p53 activity, U20SRE” value was “b (b means greater than 2)”.
